Results reported in patent US5817012A, “Method of determining an analyte” (Sudormed, Inc., priority 1997, dated 1998).
Where “and” joins values, the source holds several entries; their conditions need not be identical. Equal values may be shown once. Entries after “also recorded” stand apart in the source; their conditions may differ. Where a name gives a salt, the structure may show the parent alone.

Experiments:
[1] = Table 2; weak bases (Wilson, J., Abused Drugs, 1990); cited from earlier work
[2] = Example 6: cocaine collected on patch converted to BE and analyzed with Roche RIA; details: seven days wear, subject who ingested cocaine, pH 11, 20 minutes
Excerpt: Absorption disks, 3/8 inch in diameter, are cut from Gelman membranes (Gelman 0.45μ (SU-450) Ultrabind Supported Membranes). These 3/8 inch disks are mounted at the center of a 1/4 inch diameter hole cut in the center of a one inch diameter circle of Tegaderm 1625 Transparent Dressing (available from Minnesota Mining and Manufacturing, St. Paul, Minn.) to form a patch.
The patches remain in place until they are removed seven days later from each subject.
Following elution, the analyte solutions derived from each of the patches are brought to a pH of 11 by the addition of NaOH to each of the solutions. The solutions are reacted for 20 minutes at pH 11 and at room temperature, after which the solutions are neutralized with HCl.

[3] = in vivo; cited from earlier work
[4] = Example 12: amount of cocaine recovered on patch after nasal ingestion; details: 126 mg nasally ingested; about 200 hours wear; 10 cm^2 disk
[5] = cited from earlier work
[6] = FIG. 14: cocaine in dermal patches after smoked cocaine; details: 42 mg smoked
[7] = FIG. 13: cocaine in dermal patches after intravenous cocaine HCl; details: 32 mg cocaine HCl intravenously
Method: A dermal patch was then immediately placed on the subject's skin, and after 30 minutes this patch was removed and replaced by a new patch.

[8] = Example 20: codeine level in urine, Tegaderm-only patches and patches with absorbent material (Table 3); type: in vivo, human
Excerpt: Five patches comprising only Tegaderm™ 1625 wound dressing were applied to a subject. […] Six patches comprising Tegaderm™ 1625 and another absorbent material were also applied to the subject at the same time. The collection surface area of the absorbent material in these patches was 14 cm^2. Prior to applying each of the patches, the area of skin under each patch was first swabbed with alcohol in order to remove any contaminants present on the surface of the skin.
Twenty-four hours after the initial application of the patches to the subject, a pre-dose urine specimen and one of each of the two patch types were collected. The subject then orally consumed 60 mg of codeine phosphate (30 ml. Naldecon CX-60). This represents a typical codeine dose. At 30 and 48 hours post-dose, urine and one of each type of patch were collected.

[9] = type: in vivo, human; details: 60 mg codeine phosphate P.O.; first six hours; heating pad
Method: FIG. 16 is a graph depicting the results of an experiment in which a subject was administered codeine and a dermal patch was then placed on each of the subject's thighs. A heating pad which was heated to 105° F. was then placed over one thigh while the other thigh remained unheated. The patches were replaced each hour for six hours, and a final pair of patches was placed on the subject's thighs for one hour between 24 and 25 hours after the administration of the codeine.
Active perspiration can be caused by an increase in the body's temperature,such as during exercise. A further experiment was therefore conducted to see whether an increase in the temperature of only one area of the body could cause localized active perspiration. In this experiment, a subject was administered 60 mg of codeine phosphate (in the form of Naldecon CX P.O., 30 ml), and a dermal patch was then placed on each of the subject's thighs. A heating pad which was heated to 105° F. was then placed over one thigh while the other thigh remained unheated. The patches were replaced each hour for six hours, and a final pair of patches was placed on the subject's thighs for one hour between 24 and 25 hours after the administration of the codeine.

[10] = literature (Schwartz; Martindale); cited from earlier work
[11] = type: in vivo, human; details: seven days wear, subject who smoked a marijuana cigarette
Method: THC polyclonal antibody from sheep (available from Biogenesis, Bournmouth, England) is diluted 1:100 in PBS (pH 7.5). The antibodies are bound to Gelman 0.45μ (SU-450) Ultrabind Supported Membrane, following the protocol in Gelman Original Equipment Manufacturer application P.N. 31,084. The membranes are air dried. Disks, 3/8 inch in diameter, are cut from the coated Gelman membranes.
Each of the removed membranes is flushed five times with 300 μl of 0.2% Tween 20 in PBS. The membranes are incubated for 30 minutes in 100 μl of E-Z Screen Cannabinoid enzyme conjugate from the E-Z Screen Test Kit (available from Environmental Diagnostics, Inc., Burlington, N.C.).
After incubation, each membrane is flushed three times with 300 μl of 0.2% Tween 20 in PBS, followed by three flushes with PBS alone. The membranes are then incubated in TMB Membrane Peroxide Substrate (available from Kirkegaard & Perry Labs, Gaithersburg, Md.) for 10 minutes. A light blue background appears in all six membranes. […] No white dots appear on the three membranes taken from the subject who has never used marijuana.

## CC(N)Cc1ccccc1 (stereo not drawn) [Amphetamine]
[1]
  pKa: 9.8

## CN1[C@H]2CC[C@@H]1[C@@H](C(=O)O)[C@@H](OC(=O)c1ccccc1)C2 [BE, benzoylecgonine]
In vivo
  concentration of BE in the subject's urine over time: declining
[2]
  diagnostic analysis for BE in patch extract: tests positive

## COC(=O)[C@H]1[C@@H](OC(=O)c2ccccc2)C[C@@H]2CC[C@H]1N2C [Cocaine]
[3]
  presence in perspiration and urine: present in perspiration but not in urine
[4]
  cocaine recovered on the patch: approximately 500 ng
  cocaine recovered on the patch (in parentheses): ~0.5 mg
[5]
  stability at pH values higher than 7: unstable
Almost 200 hours
  back-diffusion from patch: without exhibiting significant back-diffusion; also recorded: significant back-diffusion was prevented
Almost 200 hours after ingestion, no specific binding chemistry
  concentration of cocaine on the dermal patch over time: rose immediately during the first hours of the test, and thereafter stayed at approximately the same level for the remaining 200 hours
[6]; patch wet with perspiration, worn 8 to 24 hours
  cocaine concentration in patch, 8 to 24 hours: a significant rise in concentration
[6]; patch worn between 4 and 8 hours
  cocaine concentration in patch, 4 to 8 hours: a decline
[6]; subject actively perspired
  analyte in patch worn 8 to 24 hours compared to patch worn 2 to 4 hours: significantly more analyte diffused into the patch worn between 8 and 24 hours
[7]
  concentration of cocaine in perspiration after the fourth hour: a steady decline

## COc1ccc2c3c1O[C@H]1[C@@H](O)C=C[C@H]4[C@@H](C2)N(C)CC[C@@]341 [Codeine, codeine]
[8]; 24.4/18.1
  ratio of recovered codeine in the Tegaderm-only patches compared to the patches with an absorbent material: 136%
[8]; 30 and 48 hours post-dose
  mean codeine level, all five patches having another absorbent material: 18.1 ng/mL
  mean codeine level, all four Tegaderm-only patches: 24.4 ng/mL
[8]; 30 hours post-dose, 60 mg codeine phosphate orally, 14 cm^2
  Codeine Level, patch with absorbent material: 12.40 ng/mL and 23.99 ng/mL
[8]; 48 hours post-dose
  urine codeine level: returned to baseline
[8]; 48 hours post-dose, 60 mg codeine phosphate orally
  Codeine Level, urine sample: 0 ng/mL
[8]; 48 hours post-dose, 60 mg codeine phosphate orally, 14 cm^2
  Codeine Level, patch with absorbent material: 14.39 ng/mL and 19.41 ng/mL and 20.17 ng/mL
[8]; 48 hours post-dose, 60 mg codeine phosphate orally, 42 cm^2
  Codeine Level, Tegaderm-only patch: 17.69 ng/mL and 23.19 ng/mL
[8]; human, urine, po, 30 hours post-dose, 60 mg codeine phosphate orally, read-out: Codeine Level, urine sample
  concentration at 30 h: 620 ng/mL
[8]; in vivo
  retention of codeine by both patch designs: about 48 hours
[8]; pre-dose urine and patch specimens
  pre-dose presence of codeine: no codeine was present
[8]; predose
  Codeine Level, Tegaderm-only patch: 0 ng/mL
  Codeine Level, patch with absorbent material: 0 ng/mL
  Codeine Level, urine sample: 0 ng/mL
[9]
  analyte in patches, heated versus unheated thigh: contained more analyte than the patches on the unheated thigh

## CCN(CC)C(=O)[C@@H]1C=C2c3cccc4[nH]cc(c34)C[C@H]2N(C)C1 [LSD]
[10]
  protection from light: must be kept from exposure to strong light

## CN[C@@H](C)Cc1ccccc1 [Methamphetamine]
[1]
  pKa: 9.9

## c1ccc(C2(N3CCCCC3)CCCCC2)cc1 [Phencyclidine]
[1]
  pKa: 8.5

## CCCCCc1cc(O)c2c(c1)OC(C)(C)[C@@H]1CCC(C)=C[C@@H]21 [THC, tetrahydrocannabinol]
[11]
  appearance of white dots on membranes (THC derivatives in sweat): White dots appear over the background on the three membranes

## COC(=O)[C@H]1[C@@H](OC(=O)c2ccccc2)C[C@@H]2CC[C@H]1N2C [cocaine hydrochloride]
[10]
  protection from light: require protection from light
